Measurements from patent US7276337B2, “Compositions and methods for visual ribonuclease detection assays” (Integrated DNA Technologies, Inc., priority 2000, dated 2007).

Assay: Ribonuclease assay on an environmental sample (tapwater), visual detection
Type: biochemical
Details: with Assay Buffer, Substrate 500 nM, room temperature 10 minutes
Experimental: Nuclease assays were conducted using the method of the invention. Dilutions of the test sample (tapwater) were made in nuclease-free water both with and without the addition of Assay Buffer. Samples were tested having 100%, 50%, 25%, 10%, 5%, and 1% tapwater. Assay Mixes contained test sample (diluted or undiluted tapwater) and Substrate (SEQ ID NO:30) at a concentration of 500 nM (50 pmoles ODN in 100 ul volume). Control Assay Mixes were in nuclease-free water without added tapwater. Duplicate Assays were performed with and without 1× Assay Buffer. Assay Mixes were incubated at room temperature for 10 minutes. Reactions were visually examined for fluorescence emission in the assay tubes without further manipulation. Tubes were suspended above an ultraviolet light source, visually inspected, and photographed using a digital camera. […] The test samples (with tapwater) emitted fluorescent signal. With Assay Buffer, tapwater was detectable when diluted to as little as 10 parts-per-thousand (1%). Without Assay Buffer, the assay was less sensitive and fluorescent emission was less intense. Addition of Buffer thus led to improved assay sensitivity.

5′ Fluorescein-AauggcA-QSY-7 3′ (NAAUGGCAN; 5' fluorescein and 3' QSY-7 labels, nucleotide chemistry not given here) [SEQ ID NO:30]
Lowest tapwater concentration detectable: 1%
